Results on four compounds are retold here after patent US4946941A, “Novel glycopeptide antibiotics” (Shionogi & Co., Ltd., priority 1986, dated 1990).

Structures are written as SMILES. Converted amounts (≈) assume the structure as drawn.

Data set [1] relates to Micrococcus luteus ATCC 9341. The experiment in a line: In vitro antibacterial activity, agar dilution method (MIC). It counts as cell-based. To be noted: 37° C., 18-20 hrs. The method, then:
(§1) In vitro antibacterial activity was determined by the agar dilution method as described below.
(§2) One loopful of each test bacterium on a slant was inoculated into 1 ml of a growth medium (Trypto Soy Broth, Eiken Chemical Co.) and incubated at 37° C. for 18-20 hours. For the growth of Streptococci, Mueller-Hinton broth (Difco) supplemented with 3%(V/V) horse serum was employed. A hundred-fold dilution of the culture is used as an inoculum suspension of the bacterium.
(§3) The sample (9-10 mg) was weighed and dissolved in distilled water at a concentration of 2 mg/ml.
(§4) A sample solution was subjected to serial two fold dilutions with sterile water (2000-0.25 μg/ml). To sterile plastic petri dishes (9 cm in diameter) was poured 0.5 ml-aliquot of sample solutions, which was mixed with 9.5 ml of an agar medium (Sensitivity Test Agar, "Nissui"). For Streptococci, horse serum was supplied at 0.5%(V/V).
(§5) One loopful (1.0 μl) of the inoculum suspension was placed on the surface of the agar plates prepared as noted above. The bacterial growth was examined visually after overnight incubation (18-20 hrs) at 37° C.

For data set [2], the system named is Staphylococcus aureus 3131 (methicillin resistant). The data set is described as above. The class given is cell-based. To be noted: 37° C., 18-20 hrs. The method, then:
as §1, §2, §3, §4, §5

The subject of data set [3] is Staphylococcus aureus ATCC 25923. The description is as above. The class given is cell-based. To be noted: 37° C., 18-20 hrs. As for the experimental part:
as §1, §2, §3, §4, §5

The test system of data set [4] is Staphylococcus aureus FDA 209F JC-1. The description is as above. To be noted: 37° C., 18-20 hrs. The class given is cell-based. As for the experimental part:
as §1, §2, §3, §4, §5

Data set [5] has as its system Staphylococcus aureus SMITH. The data set is described as above. To be noted: 37° C., 18-20 hrs. The class given is cell-based. As for the experimental part: as §1, §2, §3, §4, §5
The test system of data set [6] is Staphylococcus aureus SR14 (penicillin resistant). The data set is described as above. The class given is cell-based. To be noted: 37° C., 18-20 hrs. The method, then:
as §1, §2, §3, §4, §5

Data set [7] concerns Staphylococcus aureus SR1626 (methicillin resistant). The description is as above. It counts as cell-based. To be noted: 37° C., 18-20 hrs. As for the experimental part: as §1, §2, §3, §4, §5
For data set [8], the system named is Staphylococcus aureus SR3626 (methicillin resistant). The description is as above. It counts as cell-based. To be noted: 37° C., 18-20 hrs. As for the experimental part:
as §1, §2, §3, §4, §5

The test system of data set [9] is Streptococcus agalactica SR1247. The description is as above. To be noted: agar dilution with 0.5% horse serum, 37° C., 18-20 hrs. It counts as cell-based. The method, then:
as §1, §2, §3, §4, §5

The subject of data set [10] is Streptococcus faecalis SR1004. Described as above. The class given is cell-based. To be noted: agar dilution with 0.5% horse serum, 37° C., 18-20 hrs. As for the experimental part:
as §1, §2, §3, §4, §5

In data set [11] the test system is Streptococcus pneumoniae Type I. The description is as above. It counts as cell-based. To be noted: agar dilution with 0.5% horse serum, 37° C., 18-20 hrs. As for the experimental part: as §1, §2, §3, §4, §5
Data set [12] concerns Streptococcus pyogenes C-203. The data set is described as above. The class given is cell-based. To be noted: agar dilution with 0.5% horse serum, 37° C., 18-20 hrs. As for the experimental part:
as §1, §2, §3, §4, §5

Data set [13] relates to Staphylococcus aureus SMITH. The experiment in a line: Protective test in mice (in vivo antibacterial activity). To be noted: Staphylococcus aureus SMITH i.p. challenge, Slc-ICR female mice; s.c. 1 and 5 hours post-infection; survival on day 7. As for the experimental part:
(§6) Method: Test bacterium is intraperitoneally challenged to Slc-ICR female mice (8 mice/group), to which PA-42867-A and des-(4-epi-vancosaminyl) PA-42867-A (serial two fold dilution) are subcutaneously administered 1 and 5 hours post-infection.
(§7) Result: ED50 (50% effective dose) is calculated from survival rate of mice on day 7 after the infection.

In data set [14] the test system is Staphylococcus aureus SR2030 (methicillin-resistant). The data set is described as above. To be noted: Staphylococcus aureus SR2030 (methicillin-resistant) i.p. challenge, Slc-ICR female mice; s.c. 1 and 5 hours post-infection; survival on day 7. As for the experimental part:
as §6, §7

The test system of data set [15] is Streptoccus pyogenes C-302. The data set is described as above. To be noted: Streptoccus pyogenes C-302 i.p. challenge, Slc-ICR female mice; s.c. 1 and 5 hours post-infection; survival on day 7. The method, then: as §6, §7
The subject of data set [16] is Streptococcus pneumoniae Type I. Described as above. To be noted: Streptococcus pneumoniae Type I i.p. challenge, Slc-ICR female mice; s.c. 1 and 5 hours post-infection; survival on day 7. As for the experimental part:
as §6, §7

Data set [17] is described as follows: Solubility (physicochemical property).
Where [18] appears, read: in ether, benzene, chloroform and ethyl acetate.

As for `CN[C@H](CC(C)C)C(=O)N[C@H]1C(=O)N[C@@H](CC(N)=O)C(=O)N[C@H]2C(=O)N[C@H]3C(=O)N[C@H](C(=O)N[C@H](C(=O)O)c4cc(O)cc(O)c4-c4cc3ccc4O)[C@H](O[C@H]3C[C@](C)(N)[C@@H](O)[C@H](C)O3)c3ccc(c(Cl)c3)Oc3cc2cc(c3O[C@@H]2O[C@H](CO)[C@@H](O)[C@H](O)[C@H]2O[C@H]2C[C@](C)(N)[C@@H](O)[C@H](C)O2)Oc2ccc(cc2)[C@H]1O` [Compd. A, PA-42867-A], the minimum inhibitory concentration (MIC) came out at 0.39 µg/mL (≈ 0.25 µM) in [1]; 0.78 µg/mL (≈ 0.501 µM) in data set [2]; 0.78 µg/mL (≈ 0.501 µM) in data set [3]; 0.39 µg/mL (≈ 0.25 µM) in data set [4]; 0.78 µg/mL (≈ 0.501 µM) in data set [5]; 0.78 µg/mL (≈ 0.501 µM) in data set [6]. The MIC stood at 0.78 µg/mL (≈ 0.501 µM) in [7]; 0.78 µg/mL (≈ 0.501 µM) in data set [8]; 0.39 µg/mL (≈ 0.25 µM) in [9]; 1.56 µg/mL (≈ 1 µM) in data set [10]; 0.39 µg/mL (≈ 0.25 µM) in data set [11]; 0.39 µg/mL (≈ 0.25 µM) in data set [12]. In addition, the “ED50 (50% effective dose)” value came out at 0.62 mg/kg/dose in data set [13], 2.31 mg/kg/dose in data set [14], 0.64 mg/kg/dose in [15] and 0.90 mg/kg/dose in data set [16]. In addition, the Solubility result in data set [17] (in alcohol) is reported as “Slightly soluble”; in data set [17] (setting [18]), “Insoluble”; in data set [17] (in water and dimethylsulfoxide), “Soluble”.

In the case of `CN[C@H](CC(C)C)C(=O)N[C@H]1C(=O)N[C@@H](CC(N)=O)C(=O)N[C@H]2C(=O)N[C@H]3C(=O)N[C@H](C(=O)N[C@H](C(=O)O)c4cc(O)cc(O)c4-c4cc3ccc4O)[C@H](O[C@H]3C[C@](C)(N)[C@@H](O)[C@H](C)O3)c3ccc(c(Cl)c3)Oc3cc2cc(c3O[C@@H]2O[C@H](CO)[C@@H](O)[C@H](O)[C@H]2O[C@H]2C[C@H](O)[C@@H](O)[C@H](C)O2)Oc2ccc(cc2)[C@H]1O` [Compd. B, PA-42867-B], the minimum inhibitory concentration (MIC) in data set [1] came to 1.56 µg/mL (≈ 1.01 µM); in [2], 1.56 µg/mL (≈ 1.01 µM); in data set [3], 3.13 µg/mL (≈ 2.03 µM); in data set [4] it was 1.56 µg/mL (≈ 1.01 µM); in [5], 3.13 µg/mL (≈ 2.03 µM); in data set [6], 1.56 µg/mL (≈ 1.01 µM). Besides, the MIC in data set [7] was 1.56 µg/mL (≈ 1.01 µM); in data set [8], 1.56 µg/mL (≈ 1.01 µM); in [9], 0.78 µg/mL (≈ 0.505 µM); in data set [10], 3.13 µg/mL (≈ 2.03 µM); in data set [11] it was 0.78 µg/mL (≈ 0.505 µM); in [12], 0.78 µg/mL (≈ 0.505 µM). Besides, the Solubility entry in data set [17] (in alcohol) is “Slightly soluble”; in [17] (setting [18]), “Insoluble”; in data set [17] (in water and dimethylsulfoxide), “Soluble”.

Take `CN[C@H](CC(C)C)C(=O)N[C@H]1C(=O)N[C@@H](CC(N)=O)C(=O)N[C@H]2C(=O)N[C@H]3C(=O)N[C@H](C(=O)N[C@H](C(=O)O)c4cc(O)cc(O)c4-c4cc3ccc4O)[C@H](O[C@H]3C[C@](C)(N)[C@@H](O)[C@H](C)O3)c3ccc(c(Cl)c3)Oc3cc2cc(c3O)Oc2ccc(cc2)[C@H]1O` [Compd. D, des-(4-epi-vancosaminyl-O-glucosyl)-PA-42867-A]: the MIC came to 0.78 µg/mL (≈ 0.623 µM) in data set [1]; 0.78 µg/mL (≈ 0.623 µM) in data set [2]; 1.56 µg/mL (≈ 1.25 µM) in [3]; 0.78 µg/mL (≈ 0.623 µM) in data set [4]; 0.78 µg/mL (≈ 0.623 µM) in [5]; 0.78 µg/mL (≈ 0.623 µM) in data set [6]. Also, the minimum inhibitory concentration (MIC) came to 0.78 µg/mL (≈ 0.623 µM) in data set [7]; 0.78 µg/mL (≈ 0.623 µM) in data set [8]; 0.78 µg/mL (≈ 0.623 µM) in data set [9]; 0.78 µg/mL (≈ 0.623 µM) in data set [10]; 0.78 µg/mL (≈ 0.623 µM) in [11]; 0.39 µg/mL (≈ 0.311 µM) in data set [12].

`CN[C@H](CC(C)C)C(=O)N[C@H]1C(=O)N[C@@H](CC(N)=O)C(=O)N[C@H]2C(=O)N[C@H]3C(=O)N[C@H](C(=O)N[C@H](C(=O)O)c4cc(O)cc(O)c4-c4cc3ccc4O)[C@H](O[C@H]3C[C@](C)(N)[C@@H](O)[C@H](C)O3)c3ccc(c(Cl)c3)Oc3cc2cc(c3O[C@@H]2O[C@H](CO)[C@@H](O)[C@H](O)[C@H]2O)Oc2ccc(cc2)[C@H]1O` [Compd. C, des-(4-epi-vancosaminyl)-PA-42867-A]: the minimal inhibitory concentration (MIC) in [1] turned out to be 0.78 µg/mL (≈ 0.551 µM); in data set [2], 1.56 µg/mL (≈ 1.1 µM); in [3], 1.56 µg/mL (≈ 1.1 µM); in [4], 0.78 µg/mL (≈ 0.551 µM); in data set [5], 1.56 µg/mL (≈ 1.1 µM); in data set [6] it was 1.56 µg/mL (≈ 1.1 µM). Besides, the MIC in data set [7] turned out to be 1.56 µg/mL (≈ 1.1 µM); in data set [8] it was 1.56 µg/mL (≈ 1.1 µM); in [9], 0.78 µg/mL (≈ 0.551 µM); in [10], 1.56 µg/mL (≈ 1.1 µM); in [11], 0.78 µg/mL (≈ 0.551 µM); in data set [12], 0.78 µg/mL (≈ 0.551 µM). For the same compound, the “ED50 (50% effective dose)” value in data set [13] was determined as 1.47 mg/kg/dose; in data set [14] it was 2.91 mg/kg/dose; in data set [15] it was 1.43 mg/kg/dose; in data set [16], 2.11 mg/kg/dose.
